The values below are quoted from earlier work in patent publication US20250032643A1, “SYNTHETIC RECEPTORS” (UCL BUSINESS LTD, priority 2021, published 2025).

The target in this data set is T1, α1B (Homo sapiens, UniProt P35368).
T1 sequence (P35368 1-520): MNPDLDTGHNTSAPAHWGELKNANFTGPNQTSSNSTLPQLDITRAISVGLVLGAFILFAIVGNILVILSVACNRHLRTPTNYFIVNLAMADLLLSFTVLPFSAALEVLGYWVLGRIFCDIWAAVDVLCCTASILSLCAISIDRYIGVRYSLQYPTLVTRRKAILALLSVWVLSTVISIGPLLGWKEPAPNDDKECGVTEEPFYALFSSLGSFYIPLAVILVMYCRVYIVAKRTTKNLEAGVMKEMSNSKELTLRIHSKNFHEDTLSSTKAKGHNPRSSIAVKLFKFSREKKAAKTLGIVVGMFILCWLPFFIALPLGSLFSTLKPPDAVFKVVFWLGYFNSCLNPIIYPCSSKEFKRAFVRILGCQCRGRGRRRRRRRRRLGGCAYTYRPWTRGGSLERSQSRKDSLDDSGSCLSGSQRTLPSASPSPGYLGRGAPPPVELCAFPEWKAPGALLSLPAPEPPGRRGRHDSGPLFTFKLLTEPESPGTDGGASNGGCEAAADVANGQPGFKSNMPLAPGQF
The settings on record: read-out: binding affinity; native α1B receptor.

For `CN(C)CCOC(c1ccccc1)c1ccccc1` [DPH, diphenhydramine], the Ki was greater than 1000 nM.
